Experimental data reported in article PMC8611036, “An integrated method for optimized identification of effective natural inhibitors against SARS-CoV-2 3CLpro” (Scientific Reports, 2021).
Where two headings read alike, the source gives them in different places.

Tests used:
[1] = ref TCMSP database, cited from earlier work; for HBA: number of hydrogen-bond acceptors; for HBD: number of hydrogen-bond donors; for OB (%): oral bioavailability
SARS-CoV-2 3CLpro [2] = target: T1, SARS-CoV-2 3CLpro (Severe acute respiratory syndrome coronavirus 2, UniProt P0DTD1); experiment: Surface plasmon resonance analysis (Biacore T200); format: binding
SARS-CoV 3CLpro [3] = settings: SARS-CoV 3CLpro inhibitors (training set), ref: per compound, cited from earlier work; for pIC50: from literature IC50; for IC50: literature values
SARS-CoV 3CLpro [4] = format: biochemical; settings: activity class by pIC50 threshold 6
SARS-CoV-2 3CLpro [5] = target: T1, SARS-CoV-2 3CLpro; settings: SARS-CoV pIC50 multiplied by similarity index (SI), training set compounds
[6] = SPR, 25 °C, 3CLpro-his captured on CM7 chip, read-out: KD

Row | Compound | pIC50 (SARS-CoV 3CLpro [3]) | IC50 (SARS-CoV 3CLpro [3]) [µM] | Inact.(<6)/Act.(>=6) (SARS-CoV 3CLpro [4]) | SI*pIC50 (SARS-CoV-2 3CLpro [5]) | other results
1 | cyanidol [MOL000002] | – | – | – | – | HBA [1]: 6; HBD [1]: 5; OB (%) [1]: 1.36%; BBB [1]: -0.51; FASA- [1]: 0.34; NRotB [1]: 1
2 | Cc1cc(O)c2c(=O)c3c(O)cc(O)c4c5c(O)cc(O)c6c(=O)c7c(O)cc(C)c8c1c2c(c34)c(c78)c65 [MOL002067] | – | – | – | – | Kd (SARS-CoV-2 3CLpro [2]): 19.9 µM
3 | OC[C@@H](O)[C@@H](O)[C@H](O)[C@H](O)CO [MOL000003, MTL] | – | – | – | – | HBA [1]: 6; HBD [1]: 6; OB (%) [1]: 17.73%; BBB [1]: -4.07; Caco-2 [1]: -1.58; FASA- [1]: 0.18; NRotB [1]: 5
4 | O=C(/C=C/c1ccc(O)c(O)c1)O[C@H]1[C@H](O)C[C@](O)(C(=O)O)C[C@H]1OC(=O)/C=C/c1ccc(O)c(O)c1 [MOL001878] | – | – | – | – | Kd (SARS-CoV-2 3CLpro [2]; [6]): 0.047 µM
5 | O=C(/C=C/c1ccc(O)c2c1[C@H](C(=O)O[C@H](Cc1ccc(O)c(O)c1)C(=O)O)[C@@H](c1ccc(O)c(O)c1)O2)O[C@H](Cc1ccc(O)c(O)c1)C(=O)O [MOL007060] | – | – | – | – | Kd (SARS-CoV-2 3CLpro [2]): 64 µM
6 | O=c1c(O[C@@H]2O[C@H](CO)[C@@H](O)[C@H](O)[C@H]2O[C@@H]2O[C@H](CO)[C@@H](O)[C@H](O)[C@H]2O)c(-c2ccc(O)cc2)oc2cc(O)cc(O)c12 [MOL002761] | – | – | – | – | Kd (SARS-CoV-2 3CLpro [2]; [6]): 12.5 µM
7 | O=C(/C=C/c1ccc(O)c2c1[C@H](C(=O)O)[C@@H](c1ccc(O)c(O)c1)O2)O[C@H](Cc1ccc(O)c(O)c1)C(=O)O [MOL007113] | – | – | – | – | Kd (SARS-CoV-2 3CLpro [2]): 15 µM
8 | O=c1cc(-c2ccc(O)cc2)oc2cc(O)cc(O)c12 [MOL000008, apigenin] | – | – | – | – | HBA [1]: 5; HBD [1]: 3; OB (%) [1]: 23.06%; BBB [1]: -0.61; Caco-2 [1]: 0.43; FASA- [1]: 0.41; NRotB [1]: 1
9 | COc1cc(-c2oc3cc(O)cc(O)c3c(=O)c2O[C@@H]2O[C@H](CO)[C@@H](O)[C@H](O)[C@H]2O)ccc1O [MOL007260] | – | – | – | – | Kd (SARS-CoV-2 3CLpro [2]; [6]): 9.45 µM
10 | C[C@@H]1O[C@@H](O[C@H]2[C@H](O[C@H]3CC[C@@]4(C)[C@@H](CC[C@]5(C)[C@H]4CC=C4[C@H]6CC(C)(C)CC[C@]6(C(=O)O[C@@H]6O[C@H](CO[C@@H]7O[C@H](CO)[C@@H](O)[C@H](O)[C@H]7O)[C@@H](O)[C@H](O)[C@H]6O)CC[C@]45C)[C@]3(C)CO)OC[C@H](O)[C@@H]2O)[C@H](O)[C@H](O)[C@H]1O [MOL003034] | – | – | – | – | Kd (SARS-CoV-2 3CLpro [2]): 10.9 µM
11 | O=c1cc(-c2ccc(O)cc2)oc2cc(O[C@@H]3O[C@H](CO)[C@@H](O)[C@H](O)[C@H]3O)cc(O)c12 [MOL000007, Cosmetin] | – | – | – | – | HBA [1]: 10; HBD [1]: 6; OB (%) [1]: 9.68%; BBB [1]: -2.26; Caco-2 [1]: -1.08; FASA- [1]: 0.32; NRotB [1]: 4
12 | O=C(/C=C/c1ccc(O)c(O)c1)O[C@@H]1C[C@@](OC(=O)/C=C/c2ccc(O)c(O)c2)(C(=O)O)C[C@@H](O)[C@@H]1O [MOL007326] | – | – | – | – | Kd (SARS-CoV-2 3CLpro [2]; [6]): 20.3 µM
13 | CCC(C)c1ccc(N(C(=O)c2ccco2)C(C(=O)NC2CCCC2)c2cccnc2)cc1 (stereo not drawn) [CMP144] | 5.658 | 2.2 | Inact. (Inact.(<6)) | 5.809 | –
14 | O=c1c(O)c(-c2ccc(O)cc2)oc2cc(O)cc(O)c12 [MOL000422] | – | – | – | – | Kd (SARS-CoV-2 3CLpro [2]; [6]): 24.6 µM
15 | CCOC(=O)/C=C/[C@H](C[C@@H]1CCNC1=O)NC(=O)[C@H](CC(C)C)NC(=O)[C@@H](NC(=O)[C@H](CO)NC(=O)OC(C)(C)C)C(C)C [CMP179] | 5 | 10 | Inact. (Inact.(<6)) | 5.152 | –
16 | COC(=O)[C@]1(C)CCC[C@]2(C)c3ccc(C(C)C)cc3CC[C@@H]12 [CMP125] | 3.684 | 207 | Inact. (Inact.(<6)) | 3.836 | –
17 | CCCn1c(NCc2ccc(N3N=C(c4ccccc4)CC3c3ccccc3)cc2)nc2ccccc21 (stereo not drawn) [CMP115] | 5.097 | 8 | Inact. (Inact.(<6)) | 5.249 | –
18 | O=C(Cc1cncc(Cl)c1)c1cccs1 [CMP181] | 6.301 | 0.5 | Act. (Act.(>=6)) | 6.453 | –
19 | COc1ccc(N2C(=O)NC(=O)/C(=C\c3cc(Cl)c(OCc4cccc(C(=O)O)c4)c(Cl)c3)C2=O)cc1 [CMP103] | 5.164 | 6.86 | Inact. (Inact.(<6)) | 5.315 | –
20 | Nc1nc(CSc2nnc(-c3cccc4ccccc34)n2-c2ccccc2)cs1 [CMP135] | 4.234 | 58.3 | Inact. (Inact.(<6)) | 4.386 | –
21 | C[C@@H](CC[C@]1(O)O[C@H]2C[C@H]3[C@@H]4CC[C@@H]5C[C@@H](O[C@@H]6O[C@H](CO)[C@H](O)[C@H](O)[C@H]6O[C@@H]6O[C@H](CO)[C@@H](O)[C@H](O)[C@H]6O)CC[C@]5(C)[C@H]4CC[C@]3(C)[C@H]2[C@@H]1C)CO[C@@H]1O[C@H](CO)[C@@H](O)[C@H](O)[C@H]1O [MOL004515] | – | – | – | – | Kd (SARS-CoV-2 3CLpro [2]): 7.2 µM

Row | Compound | pIC50 (SARS-CoV 3CLpro [3]) | IC50 (SARS-CoV 3CLpro [3]) [µM] | Inact.(<6)/Act.(>=6) (SARS-CoV 3CLpro [4]) | SI*pIC50 (SARS-CoV-2 3CLpro [5]) | other results
22 | O=C(Cc1nccs1)c1nccs1 [CMP178] | 4.398 | 40 | Inact. (Inact.(<6)) | 4.55 | –
23 | CC(C)C[C@H](NC(=O)[C@@H](NC(=O)OCc1ccccc1)C(C)C)C(=O)N[C@@H](C[C@@H]1CCNC1=O)C(=O)c1nccs1 [CMP183] | 5.022 | 9.5 | Inact. (Inact.(<6)) | 5.174 | –
24 | O=C1Nc2ccc(S(=O)(=O)N3CCOCC3)cc2C1=O [CMP159] | 4.898 | 12.7 | Inact. (Inact.(<6)) | 5.05 | –
25 | CCn1c(NCc2ccc(N3N=C(c4ccccc4)CC3c3ccccc3)cc2)nc2ccccc21 (stereo not drawn) [CMP114] | 5.076 | 8.4 | Inact. (Inact.(<6)) | 5.228 | –
26 | C=CCSc1ccccc1NC(=O)/C=C/c1ccccc1 [CMP106] | 4.706 | 19.7 | Inact. (Inact.(<6)) | 4.857 | –
27 | O=C(Oc1cncc(Cl)c1)c1cc2ccccc2oc1=O [CMP162] | 6.959 | 0.11 | Act. (Act.(>=6)) | 7.11 | –
28 | CSc1[nH]nc(NC(=O)c2cccs2)c1S(=O)(=O)c1ccccc1 [CMP177] | 4.824 | 15 | Inact. (Inact.(<6)) | 4.976 | –
29 | C[C@@H]1O[C@@H](OC[C@H]2O[C@@H](Oc3c(-c4ccc(O)cc4)oc4cc(O)cc(O)c4c3=O)[C@H](O)[C@@H](O)[C@@H]2O)[C@H](O)[C@H](O)[C@H]1O [MOL002693] | – | – | – | – | Kd (SARS-CoV-2 3CLpro [2]): 3.63 µM
30 | O=C(Oc1cncc(Cl)c1)c1cccc2ccccc12 [CMP168] | 6.921 | 0.12 | Act. (Act.(>=6)) | 7.073 | –
31 | CC(=O)n1nc(SSc2ccccc2[N+](=O)[O-])nc1C [CMP120] | 5.504 | 3.13 | Inact. (Inact.(<6)) | 5.656 | –
32 | CC1CCN(S(=O)(=O)c2ccc3c(c2)C(=O)C(=O)N3)CC1 [CMP146] | 5.928 | 1.18 | Inact. (Inact.(<6)) | 6.08 | –
33 | O=C1Nc2ccc(S(=O)(=O)N3CCCCC3)cc2C1=O [CMP145] | 5.352 | 4.45 | Inact. (Inact.(<6)) | 5.503 | –
34 | C[C@@H]1O[C@@H](O[C@@H]2[C@@H](O)[C@H](OCCc3ccc(O)c(O)c3)O[C@H](CO)[C@H]2OC(=O)/C=C/c2ccc(O)c(O)c2)[C@H](O)[C@H](O)[C@H]1O [MOL003333] | – | – | – | – | Kd (SARS-CoV-2 3CLpro [2]): 0.409 µM
35 | O=c1cc(-c2ccc(O)cc2)oc2cc(O)cc(O)c12 [CMP152] | 3.552 | 281 | Inact. (Inact.(<6)) | 3.704 | –
36 | C[C@@H]1O[C@@H](OC[C@H]2O[C@@H](OCCc3ccc(O)c(O)c3)[C@H](O)[C@@H](O)[C@@H]2OC(=O)/C=C/c2ccc(O)c(O)c2)[C@H](O)[C@H](O)[C@H]1O [MOL003331] | – | – | – | – | Kd (SARS-CoV-2 3CLpro [2]): 1.21 µM
37 | O=c1c(O[C@@H]2O[C@H](CO)[C@H](O)[C@H](O)[C@H]2O)c(-c2ccc(O)c(O)c2)oc2cc(O)cc(O)c12 [MOL004368] | – | – | – | – | Kd (SARS-CoV-2 3CLpro [2]; [6]): 9.98 µM
38 | O=C(Oc1cncc(Cl)c1)c1cc2ccccc2[nH]1 [CMP170] | 7.1549 | 0.07 | Act. (Act.(>=6)) | 7.307 | –
39 | O=C1C(=O)N(c2cccc3ccccc23)c2ccc(I)cc21 [CMP117] | 5.959 | 1.1 | Inact. (Inact.(<6)) | 6.11 | –
40 | COc1cc(C=NNC(=O)C(=Cc2ccccc2)NC(=O)c2ccccc2)cc(OC)c1O [CMP123] | 4.113 | 77.1 | Inact. (Inact.(<6)) | 4.265 | –
41 | O=c1cc(-c2ccc(O)c(O)c2)oc2cc(O)cc(O)c12 [MOL000006, luteolin] | – | – | – | – | HBA [1]: 6; HBD [1]: 4; OB (%) [1]: 36.16%; BBB [1]: -0.84; Caco-2 [1]: 0.19; FASA- [1]: 0.39; HL [1]: 15.94; NRotB [1]: 1
42 | O=[N+]([O-])c1ccc(S(=O)(=O)c2ccc(Cl)cc2)[n+]([O-])c1 [CMP121] | 4.824 | 15 | Inact. (Inact.(<6)) | 4.976 | –
